Data taken from patent publication US5840725A, “Substituted oximes, hydrazones and olefins as neurokinin antagonists” (Schering Corporation, priority 1997, dated 1998).
Where two headings read alike, the source gives them in different places.

Columns and labels:
[1] = biological target: T1, human neurokinin 2 (NK2) receptor (Homo sapiens, UniProt P21452); assay: Neurokinin Receptor Binding Assay, NK2; conditions: for inhibition at 1 µM: read-out: % Inhibition NK2 (1 μM dose)
T1 construct: expressed in transfected cells; host or cells: Chinese Hamster ovary (CHO) cells
T1 sequence (P21452 1-398): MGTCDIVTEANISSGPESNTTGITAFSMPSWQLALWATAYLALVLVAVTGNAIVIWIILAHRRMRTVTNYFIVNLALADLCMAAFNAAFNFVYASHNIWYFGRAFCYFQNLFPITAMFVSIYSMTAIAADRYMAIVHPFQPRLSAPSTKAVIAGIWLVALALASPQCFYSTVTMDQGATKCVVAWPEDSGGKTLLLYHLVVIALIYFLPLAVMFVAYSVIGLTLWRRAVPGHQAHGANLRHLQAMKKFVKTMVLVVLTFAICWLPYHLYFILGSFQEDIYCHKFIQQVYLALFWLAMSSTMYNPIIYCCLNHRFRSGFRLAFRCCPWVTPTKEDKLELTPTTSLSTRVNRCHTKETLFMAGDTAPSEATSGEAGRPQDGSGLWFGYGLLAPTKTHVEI
Experimental: (§1) Neurokinin Receptor Binding Assay(s)
(§2) Chinese Hamster ovary (CHO) cells transfected with the coding regions for the human neurokinin 1 (NK1) of the human neurokinin 2 (NK2) receptors are grown in Dulbecco's minimal essential medium supplemented with 10% fetal calf serum, 0.1 mM non-essential amino acids, 2 mM glutamine, 100units/ml of penicillin and streptomycin, and 0.8 mg of G418/ml at 37° C. in a humidified atmosphere containing 5% CO2.
(§3) Cells are detached from T-175 flasks with a sterile solution containing 5 mM EDTA in phosphate buffered saline. Cells are harvested by centrifugation and washed in RPMl media at […] for 5 minutes. The pellet is resuspended inTris-HCl (pH7.4) containing 1 uM phsphoramidon and 4 ug/ml of chymostatin at a cell density of 30×10^6 cells/ml. The suspension is then homogenized in a Brinkman Polytron (setting 5) for 30-45 seconds. The homogenate is centrifuged at 800×g for 5 min at 4° C. to collect unbroken cells and nuclei. The supernatant is centrifuged in a Sorvall RC5C at 19,000 rpm ([…]) for 30 min at 4° C. The pellet is resuspended, an aliquot is removed for a protein determination (BCA) and washed again. The resulting pellet is stored at -80° C.
(§4) To assay receptor binding, 50 μl of [^3 H]-Substance P (9-Sar, 11 -Met) (specific activity 41 Ci/mmol) (Dupont-NEN) (0.8 nM for the NK-1 assay) or [^3 H]-Neurokinin A (specific activity 114 Ci/mmole) (Zenca) (1.0 nM for the NK-2 assay) is added to tubes containing buffer (50 mM Tris-HCl (pH 7.4) with 1 mM MnCl2 and 0.2% Bovine Serum Albumin) and either DMSO or test compound. Binding is initiated by the addition of 100 μl of membrane (10-20 μg) containing the human NK-1 or NK-2 receptor in a final volume of 200 μl. After 40 minutes at room temperature, the reaction is stopped by rapid filtration onto Whatman GF/C filters which have been presoaked in 0.3% polyethylenimine. Filters are washed 2 times with 3 ml of 50 mM Tris-HCl (pH7.4). Filters are added to 6 mIs of Ready-Safe liquid scintillation cocktail and quantified by liquid scintillation spectrometry in a LKB 1219 RackBeta counter. Non-specific binding is determined by the addition of either 1 μM of CP-99994 (NK-1) or 1 μM SR-48968 (NK-2) (both synthesized by the chemistry department of Schering-Plough Research Institute). IC50 values are determined from competition binding curves and Ki values are determined according to Cheng and Prusoff using the experimentally determined value of 0.8 nM for the NK-1 receptor and 2.4 nM for the NK-2 receptor.
(§5) % Inhibition is the difference between the percent of maximum specific binding (MSB) and 100%. The percent of MSB is defined by the following equation, wherein "dpm" is disintegrations per minute: [formula]

[2] = biological target: T2, human neurokinin 1 (NK1) receptor (Homo sapiens, UniProt P25103); assay: Neurokinin Receptor Binding Assay, NK1
T2 construct: expressed in transfected cells; host or cells: Chinese Hamster ovary (CHO) cells
Experimental: as §1, §2, §3, §4, §5

NK3 = biological target: T3, NK3 (Homo sapiens, UniProt P29371); assay: NK3 activity (procedure similar to literature); format: binding
T3 sequence (P29371 1-465): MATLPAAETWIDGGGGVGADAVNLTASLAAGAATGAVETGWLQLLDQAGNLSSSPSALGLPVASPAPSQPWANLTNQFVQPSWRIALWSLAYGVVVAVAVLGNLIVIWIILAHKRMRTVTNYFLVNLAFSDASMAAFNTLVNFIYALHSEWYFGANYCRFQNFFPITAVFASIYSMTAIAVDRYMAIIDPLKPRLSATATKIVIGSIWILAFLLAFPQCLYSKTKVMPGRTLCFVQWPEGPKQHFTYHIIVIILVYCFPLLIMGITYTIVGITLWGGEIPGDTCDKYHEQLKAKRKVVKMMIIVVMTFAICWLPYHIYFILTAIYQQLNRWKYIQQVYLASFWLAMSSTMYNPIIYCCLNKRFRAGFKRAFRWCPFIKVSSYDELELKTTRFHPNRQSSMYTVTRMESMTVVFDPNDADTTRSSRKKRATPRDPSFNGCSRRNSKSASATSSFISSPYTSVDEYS
Experimental: NK3 activity is determined by following a procedure similar to that described in the literature, e.g., Molecular PharmacoL, 48 (1995), p. 711-716.

[3] = 1 μM dose, [3H]-Neurokinin A, CHO cell membranes
[4] = [3H]-Substance P, CHO cell membranes
[5] = [3H]-Substance P, CHO cell membranes, read-out: Ki (NK1)
[6] = [3H]-Neurokinin A, CHO cell membranes, read-out: Ki (NK2)

T2 sequence (P25103 whole entry): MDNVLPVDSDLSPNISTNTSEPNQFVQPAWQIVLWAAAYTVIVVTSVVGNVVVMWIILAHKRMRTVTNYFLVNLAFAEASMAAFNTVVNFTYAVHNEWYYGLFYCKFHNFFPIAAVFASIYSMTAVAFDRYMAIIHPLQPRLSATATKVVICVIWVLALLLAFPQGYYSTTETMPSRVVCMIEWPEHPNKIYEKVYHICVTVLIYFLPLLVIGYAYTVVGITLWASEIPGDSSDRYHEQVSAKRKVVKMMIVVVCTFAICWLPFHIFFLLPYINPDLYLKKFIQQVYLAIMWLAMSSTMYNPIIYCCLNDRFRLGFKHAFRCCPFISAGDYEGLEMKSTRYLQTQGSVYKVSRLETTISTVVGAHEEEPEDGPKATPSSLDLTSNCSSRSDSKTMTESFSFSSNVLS

SMILES | inhibition at 1 µM [1, 3] | inhibition at 1 µM [2, 4] | Ki [1] | inhibition at 1 µM [1] | Ki [2] | Ki (NK3) | Ki [2, 5] | Ki [1, 6]
OC1(c2ccccc2)CCN(CCC(C(COCc2cc(C(F)(F)F)cc(C(F)(F)F)c2)=NOCc2ccccc2)c2ccc(Cl)c(Cl)c2)CC1 (stereo not shown) [Example 1C] | 16% | 44% |  |  |  |  |  | 
CON=C(COCc1cc(C(F)(F)F)cc(C(F)(F)F)c1)C(CCN1CCC(O)(c2ccccc2)CC1)c1ccc(Cl)c(Cl)c1 (stereo not shown) [Example 1] |  | 88% | 0.02 µM | 95% | 0.025 µM | 0.109 µM |  | 
CCOC(=O)C=C(COCc1cc(C(F)(F)F)cc(C(F)(F)F)c1)C(CCN1CCC(O)(c2ccccc2)CC1)c1ccc(Cl)c(Cl)c1 (stereo not shown) [Example 2] | 17% | 69% |  |  |  |  | 0.04 µM | 
CN1CCN(N=C(COCc2cc(C(F)(F)F)cc(C(F)(F)F)c2)C(CCN2CCC(O)(c3ccccc3)CC2)c2ccc(Cl)c(Cl)c2)CC1 (stereo not shown) [Example 7] | 13% | 69% |  |  |  |  | 0.121 µM | 
CON=C(COCc1cccc(C)c1F)C(CCN1CCC(O)(c2ccccc2)CC1)c1ccc(Cl)c(Cl)c1 (stereo not shown) [Example 22AK] | 95% | 67% |  |  |  |  | 0.132 µM | 0.002 µM
CON=C(COCc1noc(C(C)(C)C)n1)C(CCN1CCC(O)(c2ccccc2)CC1)c1ccc(Cl)c(Cl)c1 (stereo not shown) [Example 22AL] | 100% | 12% |  |  |  |  |  | 0.002 µM
OCCN(CC=C(COCc1cc(C(F)(F)F)cc(C(F)(F)F)c1)C(CCN1CCC(O)(c2ccccc2)CC1)c1ccc(Cl)c(Cl)c1)CCO (stereo not shown) [Example 35C] | 0% | 93% |  |  |  |  | 0.002 µM | 
NC(CON=C(COCc1cc(C(F)(F)F)cc(C(F)(F)F)c1)C(CCN1CCC(N2CCCCC2)CC1)c1ccc(Cl)c(Cl)c1)=NO (stereo not shown) [Example 39F] | 96% | 93% |  |  |  |  | 0.0043 µM | 0.012 µM
CON=C(COCc1cc(C(F)(F)F)cc(C(F)(F)F)c1)C(CCN1CCC(C(=O)N2CCCC2)CC1)c1ccc(Cl)c(Cl)c1 (stereo not shown) [Example 42L] | 86% | 91% |  |  |  |  | 0.0046 µM | 0.123 µM
